Entries after “also recorded” stand apart in the source; their conditions may differ.
Key:
[1] = tested on: brain metastases from HER2+ breast cancer; conditions: monotherapy; N = 242; cited from earlier work
[2] = across an intact or a tumor-compromised BBB; cited from earlier work
[3] = tested on: patients with advanced cancer; test: phase 1 dose-escalation study: safety, MTD, DLTs, adverse events; assay type: in vivo, human
[4] = phase 1 study: plasma pharmacokinetics; assay type: in vivo, human
[5] = phase 1 study: CSF distribution and protein binding; assay type: in vivo, human; conditions: 400 mg BID; for Css,avg,u,CSF (steady-state average unbound CSF concentration): n = 5, calculated by Eq. 1
advanced solid tumors = test: phase 1 study: tumor response; assay type: in vivo, human; conditions: for clinical benefit rate: CR, PR or SD durable for > 6 cycles
[6] = tested on: mutant EGFR kinase (L858R and L861Q); conditions: preclinical, Nakayama et al., unpublished data, 2012; cited from earlier work
[7] = tested on: EGFR mutant NSCLC cell line HCC4006; conditions: ref data on file; cited from earlier work
P-glycoprotein (P-gp) = conditions: in vitro transport studies; Nakayama et al., unpublished data, 2012; cited from earlier work
[8] = tested on: breast cancer resistance protein (BCRP); conditions: in vitro transport studies; Nakayama et al., unpublished data, 2012; cited from earlier work
[9] = in vitro; Nakayama et al., unpublished data, 2012; cited from earlier work
[10] = rats; cited from earlier work
[11] = tested on: patients with advanced cancers; conditions: Japanese patients, N = 26, cited from earlier work
malignant cell lines = conditions: preclinical; cited from earlier work
murine xenograft models = conditions: cited from earlier work

For `CS(=O)(=O)CCNCc1ccc(-c2ccc3ncnc(Nc4ccc(OCc5cccc(F)c5)c(Cl)c4)c3c2)o1` [lapatinib, N-{3-chloro-4-[(3-fluorobenzyl)oxy]phenyl}-6-[5-({[2-(methylsulfonyl)ethyl]amino}methyl)-2-furyl]-4-quinazolinamine], the clinical benefit rate [1] is listed as 43%, the objective response rate [1] is listed as 6% and the “patients with ≥ 50 % reduction in CNS tumor size” value [1] is listed as 8%. For the same compound, the “central nervous system (CNS) penetration” value [2] was “negligible”.

For `CC(C)(O)CC(=O)NCCn1ccc2ncnc(Nc3ccc(Oc4cccc(C(F)(F)F)c4)c(Cl)c3)c21` [TAK-285], the dose-limiting toxicities ([3]; all cohorts, as summarised in abstract) was “diarrhea, hypokalemia, and fatigue”, the tolerability ([3]; at the MTD/RP2D of 400 mg BID) was “generally well tolerated” and the “dose-proportionality of steady-state exposures” value ([4]; 50 mg BID to 500 mg BID) was “greater than dose-proportional”. The “%CV of steady-state t½” value ([4]; 400 mg BID) was 11%, the “increase in geometric mean steady-state AUC0-τ” value ([4]; 10-fold increase in dose, 50 mg BID to 500 mg BID) was 29 fold and the extent of accumulation ([4]; MTD of 400 mg BID) was “approximately 3 fold”. For the same compound, the pharmacokinetic steady-state achieved ([4]; based on similar trough concentrations on days 8, 15 and 21) was ≤ 8 days, the “time of maximum (peak) plasma concentration” value ([4]; oral, across cohorts, median) was 2 to 3 h and the “slope of linear regression of log (Css,avg) versus log (Dose)” value ([4]; power model, 95 % CI, 1.26–1.59) was 1.43. The “%CV in AUC0-τ” value ([4]; steady-state, MTD of 400 mg BID) was 58%, the “Css,avg,u,CSF (steady-state average unbound CSF concentration)” value ([5]; geometric mean (%CV)) was 1.54 ng/mL and the “Css,avg,u,CSF (steady-state average unbound CSF concentration)” value ([5]; range of individual values) was 0.51 to 4.27 ng/mL. For the same compound, the Kp ([5]; human, CSF (unbound) / plasma (unbound), oral, Cu,CSF:Cu,p ratio, 3 to 4 h postdose day 15, n = 7, mean (%CV)) was 0.663, the clinical benefit rate (advanced solid tumors; RP2D cohort, 1 patient) was 13% and the “stable disease (best response)” value (advanced solid tumors; RP2D cohort, 4 of 8 patients) was 50%. For the same compound, the “complete or partial response” value (advanced solid tumors; all cohorts) was “No patient”, the clinical benefit rate (advanced solid tumors; dose-escalation cohorts, 3 patients) was 9% and the “stable disease (best response)” value (advanced solid tumors; dose-escalation cohorts, 9 of 33 patients) was 27%. For the same compound, the “inhibition of mutant EGFR kinase activity” value [6] was “inhibits mutant EGFR kinase activity”, the “inhibition of cell growth” value [7] was “did not inhibit the growth” and the “substrate for BBB efflux transporter P-gp” value (P-glycoprotein (P-gp)) was “not a substrate”. For the same compound, the “substrate for BBB efflux transporter BCRP” value [8] was “not a substrate”, the transcellular permeability [9] was “high” and the “BBB penetration / brain distribution” value [10] was “crosses the intact BBB; also recorded: penetrates the BBB”. For the same compound, the tolerability [11] was “generally well tolerated”, the partial response ([11]; parotid cancer) was 1 patient and the “maximum tolerated dose (MTD)” value ([11]; twice daily [BID]) was 300 mg. For the same compound, the “growth of malignant cell lines” value (malignant cell lines) was “inhibits the growth” and the antitumor activity (murine xenograft models) was “has antitumor activity”.
